Holding throughout (type): biochemical
The target in one test is TYK2 (Homo sapiens (Human), UniProt P29597). Put plainly: JAK kinase assay (HTRF), TYK2. The conditions noted are these: catalytic domain (aa 871-1187), GST-tag, ATP at Km (13 μM). On the procedure:
(§1) Human baculovirus-expressed JAK1, 2, 3 and TYK2 were purchased from Carna Biosciences, Inc. All four purified enzymes contain only the catalytic domain. JAK1 (aa 850-1154) and TYK2 (aa 871-1187) are expressed with an N-terminally fused GST-tag, and JAK2 and JAK3 with an N-terminally fused His-tag.
(§2) Inhibition of phosphorylation of a synthetic peptide was measured in an HTRF-based assay using the TK substrate-Biotin from the Cisbio HTRFKinEASE TK kit. First, 2 μl of TK solution (TK substrate-biotin in kinase buffer [1× enzymatic buffer from HTRFKinEASE TK kit, 1 mM DTT]) is added to a plate containing 1 μl prediluted compound (final assay concentration DMSO: 0.75%). Then, 5 μl kinase-ATP mix (prepared in kinase buffer) is added to the wells and the plates are incubated at RT for 20-30 min. For all four kinases a concentration of ATP that corresponded to the Km for ATP was used. The final concentrations of buffers, substrate, kinase and ATP were: JAK1: 50 mM Hepes buffer pH 7.0, 0.01% BSA, 10 mM MgCl2, 1 mM DTT, 7 μM ATP, 50 nM SEB, 1 μM TK Substrate-Biotin and 5 ng JAK1; JAK2: 50 mM Hepes buffer pH 7.0, 0.01% BSA, 5 mM MgCl2, 1 mM DTT, 4 μM ATP, 1 μM TK Substrate-Biotin and 0.1 ng JAK2; JAK3: 50 mM Hepes buffer pH 7.0, 0.01% BSA, 5 mM MgCl2, 1 mM DTT, 2 μM ATP, 1 μM TK Substrate-Biotin and 0.3 ng JAK3; TYK2: 50 mM Hepes buffer pH 7.0, 0.01% BSA, 5 mM MgCl2, 1 mM DTT, 13 μM ATP, 50 nM SEB, 1 μM TK Substrate-Biotin and 0.8 ng TYK2. Thereafter, the kinase reaction is stopped by adding 4 μl detection mix (final concentrations: 50 mM Hepes buffer pH 7.0, 0.01% BSA, 0.8 M KF, 20 mM EDTA, 42 nM Streptavidin-XL665 and 1:400 STK Ab Cryptate) and the plates are incubated overnight in the dark. The HTRF signal is read using an Envision plate reader.
A general note: TR-FRET usually uses a lanthanide donor and a delayed reading to cut background.

For another test, the target named is JAK3 (Homo sapiens (Human), UniProt P52333). Kind of test: JAK kinase assay (HTRF), JAK3. The note with it: catalytic domain, His-tag, ATP at Km (2 μM). On the procedure: as §1, §2
The target in another test is JAK1 (Homo sapiens (Human), UniProt P23458). Put plainly: JAK kinase assay (HTRF), JAK1. The note with it: catalytic domain (aa 850-1154), GST-tag, ATP at Km (7 μM). On the procedure: as §1, §2
The target in a further test is JAK2 (Homo sapiens (Human), UniProt O60674). Kind of test: JAK kinase assay (HTRF), JAK2. The conditions noted are these: catalytic domain, His-tag, ATP at Km (4 μM). On the procedure:
as §1, §2

The structures appear in SMILES notation.

As a reminder, the EC50 is the concentration that produces a half-maximal response. Lower therefore signals an effect from little substance.

Sequence of JAK3 (P52333 822-1111): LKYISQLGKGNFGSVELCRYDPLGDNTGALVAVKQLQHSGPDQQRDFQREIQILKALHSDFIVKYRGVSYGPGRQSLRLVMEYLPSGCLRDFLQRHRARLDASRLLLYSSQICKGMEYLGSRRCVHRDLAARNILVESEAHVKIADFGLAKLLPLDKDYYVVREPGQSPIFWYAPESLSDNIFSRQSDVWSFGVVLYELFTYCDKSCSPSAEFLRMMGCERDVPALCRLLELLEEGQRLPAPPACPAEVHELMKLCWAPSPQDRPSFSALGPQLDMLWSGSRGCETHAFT
Sequence of JAK2 (O60674 849-1124): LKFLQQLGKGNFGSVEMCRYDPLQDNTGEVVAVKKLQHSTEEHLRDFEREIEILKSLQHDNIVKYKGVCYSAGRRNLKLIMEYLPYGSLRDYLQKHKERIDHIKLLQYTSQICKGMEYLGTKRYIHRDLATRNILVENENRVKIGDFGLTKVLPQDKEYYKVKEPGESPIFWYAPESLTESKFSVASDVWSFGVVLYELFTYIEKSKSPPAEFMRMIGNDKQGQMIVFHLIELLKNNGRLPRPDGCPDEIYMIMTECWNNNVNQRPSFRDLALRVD
Sequence of TYK2 (P29597 871-1187): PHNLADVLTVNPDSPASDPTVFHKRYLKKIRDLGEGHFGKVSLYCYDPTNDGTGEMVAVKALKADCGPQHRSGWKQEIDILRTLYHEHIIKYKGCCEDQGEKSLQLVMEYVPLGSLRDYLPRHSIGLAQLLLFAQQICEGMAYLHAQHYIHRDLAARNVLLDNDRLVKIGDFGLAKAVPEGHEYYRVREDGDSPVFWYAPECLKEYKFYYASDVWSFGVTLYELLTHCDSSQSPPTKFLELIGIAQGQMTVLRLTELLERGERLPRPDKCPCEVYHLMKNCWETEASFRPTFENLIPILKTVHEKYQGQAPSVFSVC
Sequence of JAK1 (P23458 850-1154): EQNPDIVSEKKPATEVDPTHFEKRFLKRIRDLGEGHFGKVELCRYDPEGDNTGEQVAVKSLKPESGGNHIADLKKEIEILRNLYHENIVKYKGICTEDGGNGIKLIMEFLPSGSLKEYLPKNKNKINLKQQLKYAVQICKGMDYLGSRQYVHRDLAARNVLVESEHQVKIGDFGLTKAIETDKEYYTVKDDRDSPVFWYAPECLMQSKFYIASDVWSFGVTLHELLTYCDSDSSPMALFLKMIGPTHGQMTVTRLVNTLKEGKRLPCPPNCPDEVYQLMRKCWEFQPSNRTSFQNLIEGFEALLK

Turning to `C[C@@]12CN(c3ncnc4[nH]ccc34)CC[C@@H]1CN(S(=O)(=O)CC(F)(F)F)C2` (racemic) [Example 31, 4-[(3aS*,7aS*)-3a-methyl-2-(2,2,2-trifluoroethylsulfonyl)-1,3,4,6,7,7a-hexahydropyrrolo[3,4-c]pyridin-5-yl]-7H-pyrrolo[2,3-d]pyrimidine], the EC50 on TYK2 stood at 3180 nM; at JAK3 it was 274 nM; on JAK1 it was 133 nM; on JAK2, 455 nM.

Consider `C[C@]12CN(c3ncc(C#N)cn3)C[C@H]1CCN(c1ncnc3[nH]ccc13)C2` (racemic) [Example 41, 2-[(3aS*,7aS*)-3a-methyl-5-(7H-pyrrolo[2,3-d]pyrimidin-4-yl)-1,3,4,6,7,7a-hexahydropyrrolo[3,4-c]pyridin-2-yl]pyrimidine-5-carbonitrile], for which the EC50 on TYK2 amounted to 2040 nM; on JAK3, 70 nM; on JAK1 it was 49 nM; on JAK2 it was 216 nM.

Turning to `C[C@@]12CN(c3ncnc4[nH]ccc34)CC[C@@H]1CN(S(N)(=O)=O)C2` (racemic) [Example 27, (3aS*,7aS*)-3a-methyl-5-(7H-pyrrolo[2,3-d]pyrimidin-4-yl)-1,3,4,6,7,7a-hexahydropyrrolo[3,4-c]pyridine-2-sulfonamide], the EC50 at TYK2 stood at 473 nM; at JAK3, 54 nM; on JAK1, 40 nM; on JAK2, 80 nM.

As to `C[C@@]12CN(c3ncnc4[nH]ccc34)CC[C@@H]1CN(S(C)(=O)=O)C2` (racemic) [Example 26, 4-[(3aS*,7aS*)-3a-methyl-2-methylsulfonyl-1,3,4,6,7,7a-hexahydropyrrolo[3,4-c]pyridin-5-yl]-7H-pyrrolo[2,3-d]pyrimidine], the EC50 at TYK2 stood at 898 nM; at JAK3 it was 243 nM; on JAK1, 93 nM; on JAK2, 154 nM.

In the case of `C[C@]12CN(c3ncc(Br)cc3CO)C[C@H]1CCN(c1ncnc3[nH]ccc13)C2` (racemic) [Example 37, [2-[(3aS*,7aS*)-3a-methyl-5-(7H-pyrrolo[2,3-d]pyrimidin-4-yl)-1,3,4,6,7,7a-hexahydropyrrolo[3,4-c]pyridin-2-yl]-5-bromo-3-pyridyl]methanol], the EC50 worked out at 611 nM on TYK2, 38 nM at JAK3, 12 nM on JAK1 and 48 nM at JAK2.

Regarding `C[C@@]12CN(c3ncnc4[nH]ccc34)CC[C@@H]1CCN(S(C)(=O)=O)C2` (racemic) [Example 13, (4aR*,8aS*)-8a-methyl-2-methylsulfonyl-7-(7H-pyrrolo[2,3-d]pyrimidin-4-yl)-3,4,4a,5,6,8-hexahydro-1H-2,7-naphthyridine], the EC50 on TYK2 came out at 326 nM; on JAK3 it was 75 nM; at JAK1 it was 72 nM; at JAK2, 90 nM.

As for `C[C@@]12CN(c3ncnc4[nH]ccc34)CC[C@@H]1CN(S(=O)(=O)NCC#N)C2` (racemic) [Example 30, (3aS*,7aS*)—N-(cyanomethyl)-3a-methyl-5-(7H-pyrrolo[2,3-d]pyrimidin-4-yl)-1,3,4,6,7,7a-hexahydropyrrolo[3,4-c]pyridine-2-sulfonamide], the EC50 at TYK2 came to 364 nM; on JAK3 it was 91 nM; at JAK1, 29 nM; on JAK2, 56 nM.

Regarding `C[C@]12CN(c3ncccc3CO)C[C@H]1CCN(c1ncnc3[nH]ccc13)C2` (racemic) [Example 36, [2-[(3aS*,7aS*)-3a-methyl-5-(7H-pyrrolo[2,3-d]pyrimidin-4-yl)-1,3,4,6,7,7a-hexahydropyrrolo[3,4-c]pyridin-2-yl]-3-pyridyl]methanol], the EC50 on TYK2 turned out to be 1110 nM; at JAK3, 235 nM; on JAK1, 69 nM; at JAK2, 120 nM.

On to `CC[C@]12CN(C(C)=O)CC[C@H]1CCN(c1ncnc3[nH]ccc13)C2` (relative stereo) [Example 15, 1-[(4aR*,8aS*)-8a-ethyl-7-(7H-pyrrolo[2,3-d]pyrimidin-4-yl)-3,4,4a,5,6,8-hexahydro-1H-2,7-naphthyridin-2-yl]ethanone], for which the EC50 amounted to 1040 nM at TYK2, 69 nM at JAK3, 121 nM at JAK1 and 453 nM at JAK2.

As to `Cc1cc(C#N)cnc1N1C[C@H]2CCN(c3ncnc4[nH]ccc34)C[C@@]2(C)C1` (racemic) [Example 44], the EC50 at TYK2 was 2020 nM; on JAK3, 99 nM; at JAK1, 65 nM; on JAK2 it was 179 nM.

For `C[C@]12CN(C(=O)C3(C#N)CCCC3)C[C@H]1CCN(c1ncnc3[nH]ccc13)C2` (racemic) [Example 46, 1-[(3aS*,7aS*)-3a-methyl-5-(7H-pyrrolo[2,3-d]pyrimidin-4-yl)-1,3,4,6,7,7a-hexahydropyrrolo[3,4-c]pyridine-2-carbonyl]cyclopentanecarbonitrile], the EC50 stood at 1510 nM on TYK2, 705 nM on JAK3, 97 nM on JAK1 and 625 nM on JAK2.

Regarding `C[C@]12CN(c3ccc(S(C)(=O)=O)cn3)C[C@H]1CCN(c1ncnc3[nH]ccc13)C2` (racemic) [Example 35], the EC50 at TYK2 came to 2440 nM; at JAK3, 95 nM; on JAK1, 13 nM; on JAK2, 131 nM.

For the molecule `C[C@]12CN(c3cnc(C#N)cn3)CC[C@H]1CCN(c1ncnc3[nH]ccc13)C2` (racemic) [Example 4, 5-[(4aR*,8aS*)-8a-methyl-7-(7H-pyrrolo[2,3-d]pyrimidin-4-yl)-3,4,4a,5,6,8-hexahydro-1H-2,7-naphthyridin-2-yl]pyrazine-2-carbonitrile], the EC50 was 148 nM on TYK2, 4 nM on JAK3, 4 nM at JAK1 and 25 nM at JAK2.

On to `C[C@]12CN(c3ccncn3)C[C@H]1CCN(c1ncnc3[nH]ccc13)C2` (racemic) [Example 39, 4-[(3aR*,7aS*)-3a-methyl-2-pyrimidin-4-yl-1,3,4,6,7,7a-hexahydropyrrolo[3,4-c]pyridin-5-yl]-7H-pyrrolo[2,3-d]pyrimidine], for which the EC50 at TYK2 amounted to 775 nM; at JAK3, 199 nM; on JAK1 it was 18 nM; at JAK2 it was 72 nM.

Turning to `C[C@@]12CN(c3ncnc4[nH]ccc34)CC[C@@H]1CCN(S(N)(=O)=O)C2` (racemic) [Example 9, (4aR*,8aS*)-8a-methyl-7-(7H-pyrrolo[2,3-d]pyrimidin-4-yl)-3,4,4a,5,6,8-hexahydro-1H-2,7-naphthyridine-2-sulfonamide], the EC50 at TYK2 was found to be 241 nM; at JAK3 it was 8 nM; on JAK1, 39 nM; on JAK2 it was 58 nM.

On to `Cc1cc(C#N)cnc1N1CC[C@H]2CCN(c3ncnc4[nH]ccc34)C[C@@]2(C)C1` (racemic) [Example 11, 6-[(4aS*,8aR*)-8a-methyl-7-(7H-pyrrolo[2,3-d]pyrimidin-4-yl)-3,4,4a,5,6,8-hexahydro-1H-2,7-naphthyridin-2-yl]-5-methyl-pyridine-3-carbonitrile], for which the EC50 on TYK2 is 976 nM; on JAK3, 85 nM; on JAK1, 86 nM; at JAK2, 380 nM.

For the molecule `Cc1nc(N2C[C@H]3CCN(c4ncnc5[nH]ccc45)C[C@@]3(C)C2)ccc1C#N` (racemic) [Example 45, 6-[(3aR*,7aS*)-3a-methyl-5-(7H-pyrrolo[2,3-d]pyrimidin-4-yl)-1,3,4,6,7,7a-hexahydropyrrolo[3,4-c]pyridin-2-yl]-2-methyl-pyridine-3-carbonitrile], the EC50 on TYK2 was found to be 1190 nM; at JAK3, 120 nM; at JAK1, 30 nM; at JAK2, 103 nM.

Consider `Cc1nc(N2CC[C@H]3CCN(c4ncnc5[nH]ccc45)C[C@@]3(C)C2)ccc1C#N` (racemic) [Example 10, 6-[(4aS*,8aR*)-8a-methyl-7-(7H-pyrrolo[2,3-d]pyrimidin-4-yl)-3,4,4a,5,6,8-hexahydro-1H-2,7-naphthyridin-2-yl]-2-methyl-pyridine-3-carbonitrile], for which the EC50 at TYK2 is 3880 nM; on JAK3, 204 nM; at JAK1 it was 112 nM; at JAK2, 469 nM.
